In patent US20250177275A1, “ACTIVE AGENT MODULATING THE ACTIVITY OF AN ION CHANNEL FOR USE IN INHIBITION OF SKIN AGING” (Cutaneon - Skin & Hair Innovations GmbH, priority 2022, published 2025):
Entries after “also recorded” stand apart in the source; their conditions may differ.

What was measured:
Collagen 17A [1] = assay: Collagen 17A immunofluorescence, quantitative immunohistomorphometry in ex vivo human skin organ culture; assay type: cell-based; settings: 3 days
Procedure: Samples of human abdominal, breast, temporal, and occipital skin were obtained with written patient consent and under ethical approval from healthy adult human subjects during elective plastic surgery performed for cosmetic reasons. Full-thickness human skin samples were prepared as 4-6 mm punches, placed on filter paper, and cultured at the air-liquid interphase under serum-free conditions in William's E medium supplemented only with penicillin-streptomycin, insulin, hydrocortisone and L-glutamine, as described previously.
For modelling the application of the actives directly to the skin surface (topical application) 2,5-dimethylpyrazine (DMP), a TRPM5 activator was dissolved at 37° C. at a final concentration of 12.5 mM in a 50% v/v solution of Isopropanol in PBS containing 1 g/mL of Polyethylene glycol 6000. […]
(§1) Images were then obtained with a digital microscope (Keyence). Quantitative immunohistomorphometric analysis was performed by assessing the relative fluorescent or color intensity in standardized reference areas with ImageJ (NIH; Bethesda, MD, USA). […] Two skin punch biopsies were analyzed per experimental group unless indicated otherwise. […]

Ki67 [2] = assay: Ki67 immunofluorescence, quantitative immunohistomorphometry in ex vivo human skin organ culture; assay type: cell-based; settings: 3 days
Procedure: (§2) Samples of human abdominal, breast, temporal, and occipital skin were obtained with written patient consent and under ethical approval from healthy adult human subjects during elective plastic surgery performed for cosmetic reasons. Full-thickness human skin samples were prepared as 4-6 mm punches, placed on filter paper, and cultured at the air-liquid interphase under serum-free conditions in William's E medium supplemented only with penicillin-streptomycin, insulin, hydrocortisone and L-glutamine, as described previously. […]
as §1
For the detection of Ki67, formalin-fixed human skin frozen sections were blocked with PBS containing 10% normal goat serum (NGS) for 30 minutes at room temperature and then incubated with an anti-Ki67 antibody diluted 1:800 in PBS containing 2% NGS overnight at 4° C. […] Image acquisition and quantitative immunohistomorphometric analysis were performed similar to as described above.

Collagen 17A [3] = assay: Collagen 17A immunofluorescence in normal human epidermal keratinocyte (NHEK) culture; assay type: cell-based; settings: 24 hrs; for expression of Collagen 17A in NHEKs: vs vehicle
Procedure: (§3) Primary adult normal human epidermal keratinocytes (NHEK) were cultured in serum-free Keratinocyte Growth Medium 2 (KGM2) up to passage 6 and were seeded on glass slides at a density of 15-20×10^3 cells/cm^2. The next day, the KGM2 culture medium was changed and supplemented with hereafter indicated compounds, their combination or ethanol as vehicle control.
(§4) For application of the active to the medium (systemic application), 2,5-dimethylpyrazine (DMP), a TRPM5 activator, the DMP stock was dissolved at 37° C. at a final concentration of 10, 12.5 or 100 nM in KGM2. For triphenylphosphine oxide (TPPO), a TRPM5 inhibitor, a stock was prepared in ethanol and dissolved at 37° C. at a final concentration of 50 μM in KGM2. After 24 hours, NHEKs were washed in PBS and then either fixed in 4% formaldehyde for 10 minutes are room temperature (immunofluorescence labeling) or lysed in Buffer RLT containing 1% β-mercaptoethanol (for quantitative RT-qPCR).
For the detection of Collagen 17A in cell cultures, formalin-fixed NHEKs were permeabilized in PBS containing 0.05% Triton™ X-100 for 10 minutes, rinsed in PBS and then blocked in PBS containing 10% normal goat serum (NGS) for 20 minutes. Next, samples were incubated with an anti-Collagen 17A diluted 1:100 in antibody diluent overnight at 4° C. After consecutive rinses with PBS, samples were incubated with Alexa fluorophore-conjugated secondary antibodies diluted 1:500 in antibody diluent containing 2% NGS for 45 minutes at room temperature. […]
For the analysis on NHEKs, images were then obtained with a digital microscope (Keyence). Quantitative immunohistomorphometric analysis was performed by assessing the number of positive cells or the relative fluorescence intensity in standardized reference areas with ImageJ (NIH; Bethesda, MD, USA). Briefly, for the evaluation of Collagen 17A, the relative target-specific intensity was measured in 14-20 cells per microscopic field. For each parameter 14-20 microscopic fields were evaluated.

Cytokeratin 15 [4] = assay: Cytokeratin 15 immunofluorescence in normal human epidermal keratinocyte (NHEK) culture; assay type: cell-based; settings: 24 hrs; for expression of Cytokeratin 15 in NHEKs: vs vehicle
Procedure: as §3, §4
For the detection of Cytokeratin 15 in cell cultures, formalin-fixed NHEKs were permeabilized in PBS containing 0.05% Triton™ X-100 for 10 minutes, rinsed in PBS and then blocked in PBS containing 10% normal goat serum (NGS) for 20 minutes. Next, samples were incubated with an anti-Cytokeratin 15 diluted 1:100 in antibody diluent overnight at 4° C. After consecutive rinses with PBS, samples were incubated with Alexa fluorophore-conjugated secondary antibodies diluted 1:500 in antibody diluent containing 2% NGS for 45 minutes at room temperature. […]
For the analysis on NHEKs, images were then obtained with a digital microscope (Keyence). Quantitative immunohistomorphometric analysis was performed by assessing the number of positive cells or the relative fluorescence intensity in standardized reference areas with ImageJ (NIH; Bethesda, MD, USA). Briefly, for the evaluation of Cytokeratin 15, the relative target-specific intensity was measured in 14-20 cells per microscopic field. For each parameter 14-20 microscopic fields were evaluated.

Cytokeratin 15 [5] = assay: Cytokeratin 15 immunofluorescence, quantitative immunohistomorphometry in ex vivo human skin organ culture; assay type: cell-based; settings: topical DMP 12.5 mM, 3 days, vs vehicle
Procedure: as §2, §1
After consecutive rinses with PBS, samples were incubated with Alexa fluorophore-conjugated secondary antibodies diluted 1:500 in antibody diluent containing 2% normal goat serum for 45 minutes at room temperature. […] Image acquisition and quantitative immunohistomorphometric analysis were performed similar to as described above.

Lamin B1 = Lamin B1 immunofluorescence, quantitative immunohistomorphometry in ex vivo human skin organ culture; assay type: cell-based; settings: systemic (medium) DMP 12.5 μM, 3 days, vs vehicle
PGC1α = PGC1α immunofluorescence, quantitative immunohistomorphometry in ex vivo human skin organ culture; assay type: cell-based; settings: systemic (medium) DMP 12.5 μM, 3 days, vs vehicle
Sirtuin-1 = Sirtuin-1 immunohistochemistry, quantitative immunohistomorphometry in ex vivo human skin organ culture; assay type: cell-based; settings: systemic (medium) DMP 12.5 μM, 3 days, vs vehicle
COL17A1 = COL17A1 mRNA by RT-qPCR in NHEK culture; assay type: cell-based, human; settings: DMP 10 nM, 24 hrs, normalized to GAPDH, vs vehicle
Procedure: as §3
(§5) For application of the active to the medium (systemic application), 2,5-dimethylpyrazine (DMP), a TRPM5 activator, the DMP stock was dissolved at 37° C. at a final concentration of 10, 12.5 or 100 nM in KGM2. […] After 24 hours, NHEKs were washed in PBS and then either fixed in 4% formaldehyde for 10 minutes are room temperature (immunofluorescence labeling) or lysed in Buffer RLT containing 1% β-mercaptoethanol (for quantitative RT-qPCR).
(§6) For the assessment of Collagen 17A and Cytokeratin 15 specific mRNA transcripts (COL17A, KRT15) by quantitative RT-qPCR technology, RNA was isolated from cells lysed in Buffer RLT containing 1% β-mercaptoethanol using the RNeasy Mini Kit according to the manufacturer's instructions. RNA purity and concentrations were determined using the BioDrop. […] Real-time quantitative polymerase chain reaction (qRT-PCR) was run in triplicate using TaqMan™ Fast Advanced Master Mix and TaqMan Gene Expression Assays on the QuantStudio. […]

KRT15 = KRT15 mRNA by RT-qPCR in NHEK culture; assay type: cell-based, human; settings: DMP 100 nM, 24 hrs, normalized to GAPDH, vs vehicle
Procedure: as §3, §5, §6

Ki67 [6] = assay: Ki67 positive cell count (proliferation) in NHEK culture; assay type: cell-based, human; settings: DMP 100 nM, 24 hrs, vs vehicle
Procedure: as §3
(§7) For application of the active to the medium (systemic application), 2,5-dimethylpyrazine (DMP), a TRPM5 activator, the DMP stock was dissolved at 37° C. at a final concentration of 10, 12.5 or 100 nM in KGM2. […] After 24 hours, NHEKs were washed in PBS and then either fixed in 4% formaldehyde for 10 minutes are room temperature (immunofluorescence labeling) or lysed in Buffer RLT containing 1% β-mercaptoethanol (for quantitative RT-qPCR). […]
For the analysis on NHEKs, images were then obtained with a digital microscope (Keyence). Quantitative immunohistomorphometric analysis was performed by assessing the number of positive cells or the relative fluorescence intensity in standardized reference areas with ImageJ (NIH; Bethesda, MD, USA). Briefly, for the evaluation of Ki67, the number of cells with positive nuclear staining per field was counted and normalized to the total number of DAPI positive nuclei. For each parameter 14-20 microscopic fields were evaluated.

[7] = system: Phospho-Histone H3 Ser10 (pH3S10); assay: Phospho-Histone H3 Ser10 (pH3S10) positive cell count in NHEK culture; assay type: cell-based, human; settings: DMP 100 nM, 24 hrs, vs vehicle
Procedure: as §3, §7
For the analysis on NHEKs, images were then obtained with a digital microscope (Keyence). Quantitative immunohistomorphometric analysis was performed by assessing the number of positive cells or the relative fluorescence intensity in standardized reference areas with ImageJ (NIH; Bethesda, MD, USA). Briefly, for the evaluation of pH3S10, the number of cells with positive nuclear staining per field was counted and normalized to the total number of DAPI positive nuclei. For each parameter 14-20 microscopic fields were evaluated.

[8] = topical TPPO 1.5 mM with topical DMP 12.5 mM
[9] = topical DMP 12.5 mM, vs vehicle

| Structure (SMILES) | effect on DMP-induced upregulation of Collagen 17A expression (Collagen 17A [1]; [8]) | effect on DMP-induced upregulation of Ki67 expression (Ki67 [2]; [8]) | effect on DMP-induced upregulation of Collagen 17A expression (Collagen 17A [3]; TPPO 50 μM with DMP 100 nM) | effect on DMP-induced upregulation of Cytokeratin 15 expression (Cytokeratin 15 [4]; TPPO 50 μM with DMP 100 nM) | expression of Collagen 17A in the basal layers of the epidermis (Collagen 17A [1]; [9]) | expression of Cytokeratin 15 in the basal layers of the epidermis (Cytokeratin 15 [5]) | expression of Lamin B1 in the epidermis (Lamin B1) | expression of PGC1α in the epidermis (PGC1α) | expression of Sirtuin 1 in the epidermis (Sirtuin-1) | expression of Ki67 in the epidermis (Ki67 [2]; [9]) | expression of Collagen 17A in NHEKs (Collagen 17A [3]; DMP 12.5 nM) | expression of Collagen 17A in NHEKs (Collagen 17A [3]; DMP 100 nM) | expression of Cytokeratin 15 in NHEKs (Cytokeratin 15 [4]; DMP 12.5 nM) | expression of Cytokeratin 15 in NHEKs (Cytokeratin 15 [4]; DMP 100 nM) | gene expression of COL17A1 (RT-qPCR) (COL17A1) | gene expression of KRT15 (RT-qPCR) (KRT15) | number of Ki67 positive (proliferating) NHEKs (Ki67 [6]) | number of pH3S10 positive (dividing and proliferating) NHEKs [7] |
| --- | --- | --- | --- | --- | --- | --- | --- | --- | --- | --- | --- | --- | --- | --- | --- | --- | --- | --- |
| O=P(c1ccccc1)(c1ccccc1)c1ccccc1 [TPPO, triphenylphosphine oxide, reference compound] | prevented the effect | prevented the effect | prevented the effect | prevented the effect |  |  |  |  |  |  |  |  |  |  |  |  |  |  |
| Cc1cnc(C)cn1 [DMP, 2,5-dimethylpyrazine] |  |  |  |  | upregulate; also recorded: markedly increases | markedly increases | markedly increases | markedly increases | markedly increases | upregulate | markedly increases | upregulate | markedly increases | upregulate | markedly increases | markedly increases | markedly increases | markedly increases |
